Values after ≈ are worked out from the molar mass of the structure shown. Read-outs that look alike come from different tables or passages of the source. Where a SMILES comes first, the peptide text is derived from it. Bridges are numbered along the chain shown (N, C = ends). [ ]: non-standard residue; d: D form. Bip = N[C@@H](Cc1ccc(-c2ccccc2)cc1)C(=O)O; NMeF = CN[C@@H](Cc1ccccc1)C(=O)O
What was measured:
CFT073 + EDTA = assay: microbe, parasite or virus in culture; format: cell-based, E. coli; details: average of at least four independent experiments in duplicates
Procedure: (§1) Unless stated otherwise, E. coli cells were grown in Luria-Bertani (LB) medium (0.5% yeast extract, 1% tryptone, 0.5% NaCl) at 37°C. Where indicated, kanamycin (Kan) was added to culture media at a 50-μg/ml final concentration. MIC assays were performed based on Clinical and Laboratory Standards Institute (CLSI) guidelines. For in vitro growth curves, overnight cultures of WT CFT073, CFT073 Δlgt, and CFT073 Δlgt complemented with lgt from E. coli (lgt^Ec) or P. aeruginosa (lgt^Pa) were grown to mid-exponential phase (optical density at 600 nm [OD600] of 0.6) and then diluted to an OD600 of 0.1 to initiate growth curves. At various times, culture aliquots were diluted and plated in dilutions on LB+Kan agar, and CFU were enumerated in duplicates. Growth of MG1655 inducible deletion strains was measured by culturing in the presence of 2-fold dilutions of arabinose (starting arabinose concentrations for CFT073 and MG1655 inducible deletion strains were 4% and 0.8%, respectively). While […] was sufficient for WT growth of MG1655 Δlgt, 4% arabinose was used for CFT073 Δlgt based on comparing its growth to that of WT CFT073 as measured by CFU. OD600 growth measurements were performed using an EnVision 2101 multilabel reader plate reader (PerkinElmer) linked with Echo liquid handler (Labcyte). For time-kill experiments, bacteria were harvested in mid-exponential phase and treated with 12.5 μM G2824, 3.2 μM globomycin, and 1.6 μM vancomycin. CFU were enumerated at various times posttreatment. Bacterial culture medium containing 2% arabinose was used to induce lpp or lppΔK expression from pBad24 plasmids. Bacterial viability at different time points during the treatment was measured by enumerating CFU. Serum killing assays were carried out as previously described ([17]).

CFT073 imp4213 Δlpp = assay: microbe, parasite or virus in culture; format: cell-based, E. coli
Procedure: as §1

CFT073 imp4213 = assay: microbe, parasite or virus in culture; format: cell-based, E. coli; details: average of at least four independent experiments in duplicates
Procedure: as §1

CFT073 Δlpp + EDTA = assay: microbe, parasite or virus in culture; format: cell-based, E. coli
Procedure: as §1

CFT073 Δlpp = assay: microbe, parasite or virus in culture; format: cell-based, E. coli
Procedure: as §1

CFT073 = assay: microbe, parasite or virus in culture; format: cell-based, E. coli; details: average of at least four independent experiments in duplicates
Procedure: as §1

MG1655 + EDTA = assay: microbe, parasite or virus in culture; format: cell-based, E. coli; details: average of at least four independent experiments in duplicates
Procedure: as §1

MG1655 Δlpp + EDTA = assay: microbe, parasite or virus in culture; format: cell-based, E. coli
Procedure: as §1

MG1655 Δlpp = assay: microbe, parasite or virus in culture; format: cell-based, E. coli
Procedure: as §1

MG1655 = assay: microbe, parasite or virus in culture; format: cell-based, E. coli; details: average of at least four independent experiments in duplicates
Procedure: as §1

[1] = test system: A. baumannii 19606 + EDTA; assay: microbe, parasite or virus in culture; format: cell-based; details: average of two independent experiments in duplicates
Procedure: as §1

A. baumannii 19606 = assay: microbe, parasite or virus in culture; format: cell-based; details: average of two independent experiments in duplicates
Procedure: as §1

P. aeruginosa PA14 = assay: microbe, parasite or virus in culture; format: cell-based; details: average of two independent experiments in duplicates
Procedure: as §1

S. aureus USA300 = assay: microbe, parasite or virus in culture; format: cell-based
Procedure: as §1

PA14 + EDTA = assay: microbe, parasite or virus in culture; format: cell-based, P. aeruginosa; details: average of two independent experiments in duplicates
Procedure: as §1

in vitro = format: cell-based; details: human, representative of three independent replicates, read-out: EC50, mammalian cytotoxicity
Source text: TABLE 2 Growth inhibition of a panel of bacterial strains and eukaryotic cells by G9066, G2824, globomycin, and vancomycin | column: MIC or EC50 (μM)^a / G9066; MIC or EC50 (μM)^a / G2824; MIC or EC50 (μM)^a / Globomycin; MIC or EC50 (μM)^a / Vancomycin

[2] = CFT073 imp4213 Δlpp, average of at least four independent experiments in duplicates
[3] = CFT073 Δlpp + EDTA, average of at least four independent experiments in duplicates
[4] = CFT073 Δlpp, average of at least four independent experiments in duplicates
[5] = MG1655 Δlpp + EDTA, average of at least four independent experiments in duplicates
[6] = MG1655 Δlpp, average of at least four independent experiments in duplicates
[7] = S. aureus USA300, average of two independent experiments in duplicates
[8] = Escherichia coli, read-out: MIC

Row | Compound | MIC (CFT073 + EDTA) [µM] | MIC (CFT073 imp4213 Δlpp; [2]) [µM] | MIC (CFT073 imp4213) [µM] | MIC (CFT073 Δlpp + EDTA; [3]) [µM] | MIC (CFT073 Δlpp; [4]) [µM] | MIC (CFT073) [µM] | MIC (CFT073; read-out: MIC) [µM] | MIC (MG1655 + EDTA) [µM] | MIC (MG1655 Δlpp + EDTA; [5]) [µM] | MIC (MG1655 Δlpp; [6]) [µM] | MIC (MG1655) [µM] | MIC (MG1655; read-out: MIC) [µM] | MIC [1] [µM] | MIC (A. baumannii 19606) [µM] | MIC (P. aeruginosa PA14) [µM] | MIC (S. aureus USA300; [7]) [µM] | MIC (PA14 + EDTA) [µM] | EC50 (in vitro; 293T) [µM] | EC50 (in vitro; Hela) [µM] | EC50 (in vitro; HepG2) [µM] | further results
1 | CN1C(=O)[C@H](Cc2ccc(-c3ccccc3)cc2)NC(=O)CNC(=O)[C@H](CC(=O)O)NC(=O)[C@@H](Cc2ccccc2)NC(=O)CSC[C@@H](C(=O)NCC(=O)N[C@@H](CCCCN)C(=O)N[C@@H](CCCCN)C(N)=O)NC(=O)[C@H](CCCNC(=N)N)NC(=O)[C@H](CO)NC(=O)[C@H](Cc2ccc(-c3ccccc3)cc2)NC(=O)[C@@H]1Cc1ccccc1 [G2824] ({CH2CO}-[dF]DG[Bip][NMeF][Bip]SRCGKK-NH2; thioether N-9) | 3.1 (≈ 5.1 µg/mL) | 8.9 (≈ 14.6 µg/mL) | 8.4 (≈ 13.8 µg/mL) | 2.3 | 62.5 (≈ 103 µg/mL) | ~100 (≈ 164 µg/mL) | 92 (≈ 151 µg/mL) | 3.1 (≈ 5.1 µg/mL) | 3.1 | 62.5 (≈ 103 µg/mL) | ~100 (≈ 164 µg/mL) | 93.8 (≈ 154 µg/mL) | 6.3 (≈ 10.4 µg/mL) | 37.5 (≈ 61.6 µg/mL) | >100 | >100 | 6.3 (≈ 10.4 µg/mL) | > 100 | > 100 | > 100 | –
2 | CN[C@H](CC(C)C)C(=O)N[C@H]1C(=O)N[C@@H](CC(N)=O)C(=O)N[C@H]2C(=O)N[C@H]3C(=O)N[C@H](C(=O)N[C@H](C(=O)O)c4cc(O)cc(O)c4-c4cc3ccc4O)[C@H](O)c3ccc(c(Cl)c3)Oc3cc2cc(c3O[C@@H]2O[C@H](CO)[C@@H](O)[C@H](O)[C@H]2O[C@H]2C[C@](C)(N)[C@H](O)[C@H](C)O2)Oc2ccc(cc2Cl)[C@H]1O [Vancomycin] | – | – | – | – | – | – | – | – | – | – | – | – | – | – | – | – | – | > 100 | > 100 | > 100 | MIC (CFT073 + EDTA; Escherichia coli): 0.8 µM (≈ 1.16 µg/mL); MIC (CFT073 imp4213 Δlpp; Escherichia coli): 0.7 µM (≈ 1.01 µg/mL); MIC (CFT073 imp4213; Escherichia coli): 0.6 µM (≈ 0.87 µg/mL); MIC (CFT073 Δlpp + EDTA; Escherichia coli): 0.8 µM (≈ 1.16 µg/mL); MIC (CFT073 Δlpp; Escherichia coli): > 100 µM; MIC (CFT073; [8]): > 100 µM; MIC (MG1655 + EDTA; Escherichia coli): 3.1 µM (≈ 4.49 µg/mL); MIC (MG1655 Δlpp + EDTA; Escherichia coli, MG1655): 0.8 µM (≈ 1.16 µg/mL); MIC (MG1655 Δlpp; Escherichia coli, MG1655): > 100 µM; MIC (MG1655; [8]): > 100 µM; MIC ([1]; Acinetobacter baumannii): 0.2 µM (≈ 0.29 µg/mL); MIC (A. baumannii 19606; Acinetobacter baumannii): > 100 µM; MIC (P. aeruginosa PA14; Pseudomonas aeruginosa): > 100 µM; MIC (S. aureus USA300; Staphylococcus aureus, USA300): 0.4 µM (≈ 0.58 µg/mL); MIC (PA14 + EDTA; Pseudomonas aeruginosa): 6.3 µM (≈ 9.13 µg/mL)
3 | CN1C(=O)[C@H](Cc2ccc(-c3ccccc3)cc2)NC(=O)CNC(=O)[C@H](CCCNC(=N)N)NC(=O)[C@@H](Cc2ccccc2)NC(=O)CSC[C@@H](C(=O)NCC(N)=O)NC(=O)[C@H](CCCNC(=N)N)NC(=O)[C@H](CO)NC(=O)[C@H](Cc2ccc(-c3ccccc3)cc2)NC(=O)[C@@H]1Cc1ccccc1 [G9066] ({CH2CO}-[dF]RG[Bip][NMeF][Bip]SRCG-NH2; thioether N-9) | 3.1 (≈ 4.43 µg/mL) | 6.8 (≈ 9.72 µg/mL) | 5.7 (≈ 8.14 µg/mL) | 1.6 | 31.3 (≈ 44.7 µg/mL) | ~100 (≈ 143 µg/mL) | – | 3.1 (≈ 4.43 µg/mL) | 3.1 | 31.3 (≈ 44.7 µg/mL) | ~100 (≈ 143 µg/mL) | >100 | 3.1 (≈ 4.43 µg/mL) | 37.5 (≈ 53.6 µg/mL) | >100 | 6.3 (≈ 9 µg/mL) | 6.3 (≈ 9 µg/mL) | > 100 | > 100 | > 100 | –
4 | CCCCCC[C@H]1OC(=O)CNC(=O)[C@H]([C@H](C)O)NC(=O)[C@H](CO)NC(=O)[C@H]([C@H](C)CC)NC(=O)[C@H](CC(C)C)N(C)C(=O)[C@@H]1C [Globomycin] | 1.1 (≈ 0.721 µg/mL) | 11.5 (≈ 7.54 µg/mL) | 0.5 (≈ 0.328 µg/mL) | 4.7 | >100 | – | 29.2 (≈ 19.2 µg/mL) | 0.8 (≈ 0.525 µg/mL) | 12.5 | 50 (≈ 32.8 µg/mL) | – | 25 (≈ 16.4 µg/mL) | 0.6 (≈ 0.394 µg/mL) | 25 (≈ 16.4 µg/mL) | >100 | >100 | 50 (≈ 32.8 µg/mL) | > 100 | > 100 | > 100 | effect of lpp deletion on growth inhibition, CFT073, in words (CFT073 Δlpp; CFT073 Δlpp versus WT): resistant; effect of lpp deletion on growth inhibition, MG1655, in words (MG1655 Δlpp; MG1655 Δlpp versus WT): resistant

Reference: article PMC8316002, “Inhibition of Escherichia coli Lipoprotein Diacylglyceryl Transferase Is Insensitive to Resistance Caused by Deletion of Braun’s Lipoprotein” (Journal of Bacteriology, 2021)
